The record followed here is patent US6378981B1, “Surfactant for inkjet service station wiper fluid” (Hewlett-Packard Company, priority 2000, dated 2002).

Data set [1] is described as follows: Separation of surfactant from PEG400, observed for seven days. The data set is classed as physicochemical. To be noted: 1 wt. % solution in PEG400, 50 ml tubes, observed daily for seven days. As to the method:
1 wt. % solutions of C8AO (Hexyl dimethyl amine oxide), C10AO (NN dimethyl octyl amine oxide), C14AO (NN Dimethyl dodecyl amine oxide), […] and C18AO (NN Dimethyl-N-oxide hexadecane amine) with PEG400 were prepared and placed in 50 ml tubes. The tubes were observed daily for seven days. No separation of surfactant from PEG400 was observed.

The procedure of data set [2]: Non-ionic surfactants (Tergitol 15-S-5, Surfynol465), an amphoteric surfactant (Mackam OCT-50), an anionic surfactant (Dodecylbenzene sulfonate Na) and a cationic surfactant (Cetyl trimethyl ammonium bromide) were tested for solubility in an inkjet test ink having the following formulation.
The pass/fail criteria were the absence or presence of insoluble material on the bottom on the container after three days at room temperature.

Data set [3] in a line: Wetting effectiveness of surfactants on orifice (nozzle) plate. It counts as physicochemical. On the set-up: key: Good: Wetting is considered “good” when a very thick layer of ink spreads out evenly on the orifice plate. The protocol: To determine an effective surfactant concentration range in a servicing fluid, the following procedure was used. A think uniform coat of test servicing fluid was applied to the nozzle plate. 0.5 μl of drop test ink was then applied to the coated nozzle plate and the maximum dot diameter was then measured.
Wetting is considered “good” when a very thick layer of ink spreads out evenly on the orifice plate.

The structures appear in SMILES notation.

As to `CCCCCCCCCCCC[N+](C)(C)[O-]` [C14AO, NN Dimethyl dodecyl amine oxide], in data set [1], the “Separation of surfactant from PEG400” value was “No separation”.
Consider `CCCCCCCCCCCCCCCC[N+](C)(C)C.[Br-]` [Cetyl trimethyl ammonium bromide], for which the Compatibility entry in data set [2] is “Fail”.
Consider `CCCCCCCC[N+](C)(C)[O-]` [Dimethyl Octylamine oxide], for which the Wetting result in data set [3] (0.01 wt. % surfactant in PEG 300 servicing fluid) is “Good”; in data set [3] (0.1 wt. % surfactant in PEG 300 servicing fluid) it was “Good”; in data set [3] (1.0 wt. % surfactant in PEG 300 servicing fluid), “Poor”; in data set [3] (2.0 wt. % surfactant in PEG 300 servicing fluid), “Poor”; in data set [3] (3.0 wt. % surfactant in PEG 300 servicing fluid), “Poor”; in data set [3] (4.0 wt. % surfactant in PEG 300 servicing fluid), “Poor”. Further, the “Separation of surfactant from PEG400” value in data set [1] was “No separation”.
For `CCCCCC[N+](C)(C)[O-]` [Hexyl dimethyl amine oxide], the Compatibility result in data set [2] is “Pass”. For the same molecule, in data set [1], the “Separation of surfactant from PEG400” value is listed as “No separation”.
`CCCCCCCCCCCCCC[N+](C)(C)[O-]` [Myristyl dimethyl amine oxide]: the “Separation of surfactant from PEG400” value in data set [1] is reported as “No separation”.
On to `CCCCCCCCCCCCCCCC[N+](C)(C)[O-]` [NN Dimethyl-N-oxide hexadecane amine], for which the “Separation of surfactant from PEG400” value in data set [1] is “No separation”.
